Laboratory results from US20230181609A1, “IMMUNOMODULATORY OLIGOSACCHARIDES” (The Regents of the University of California, priority 2017, published 2023).

Key:
[1] = system: primary mouse cells (bone marrow derived macrophages); experiment: Pro-inflammatory cytokine expression in primary mouse bone marrow derived macrophages; assay type: cell-based
Source text: (§1) Accordingly, the results with 3′SL translate to primary cells as well as to human macrophages.

[2] = system: human THP-1 monocytic cell line; experiment: Pro-inflammatory cytokine expression in human THP-1 monocytic cell line; assay type: cell-based
Source text: as §1

[3] = system: collagen antibody-induced arthritis (CAIA); experiment: Collagen antibody-induced arthritis (CAIA) mouse model; assay type: in vivo, female BALB/c mice
Description: Oral gavage of 3′SL (20 mg thrice daily, beginning at the time of LPS trigger) reduces baseline-corrected ankle swelling (A) and clinical pathology score 28 (B) over the course of the study. […] (*p<0.05, **p<0.01, ***p<0.001).
Rheumatoid Arthritis In vivo Experimental Design. Macrophages and the pro-inflammatory cytokines IL-6 and IL-1β are known to perform a major role in the development and progression of joint destruction in animal models and patients with RA. […] Next, it was asked whether or not the in vitro results translate to an in vivo model. 3′SL efficacy in a collagen antibody-induced arthritis (CAIA) model was tested in mice. In the CAIA model, arthritis is induced by systemic administration of a cocktail of monoclonal antibodies that target various regions of collagen type II, which is one of the major constituents of articular cartilage matrix proteins, followed by the administration of endotoxin (LPS) on day 3. The high uptake rate in the CAIA model and the capacity to synchronize the development of arthritis from the time of antibody injection, makes this a relatively straightforward model that is used to address questions of pathogenic mechanisms and to screen candidate therapeutic agents.
8-week old female BALB/c mice were injected with 1.5 mg of Arthrogen-CIA monoclonal antibody cocktail (Chondrex, Inc.). Three days later, the mice were injected with 25 μg of LPS. Beginning with the time of LPS administration and followed for the next 11 consecutive days, mice were orally gavaged thrice daily with either 3′SL (20 mg in saline) or saline alone as control. With the tester blinded to the study groups, arthritis in each limb was determined once per day. […] By adding together, the scores of all four limbs, the maximum score per mouse is 28. In addition, a caliper was placed across the ankle joint at the widest point to measure ankle thickness in both hind limbs daily. 14 days after antibody cocktail administration, mice were euthanized and hind paws collected and processed for histology. H&E—as well as Toluidine blue-stained sections were scored from 0 to 4 for inflammation, bone erosion and cartilage depletion based on a previously validated scoring system.

[4] = system: IL-6 and IL-1β mRNA expression in LPS-activated RAW 264.7 cells; experiment: Pro-inflammatory cytokine mRNA expression (RT-PCR) in LPS-stimulated RAW 264.7 macrophages; assay type: cell-based, murine
Description: RAW246.7 cells were exposed to LPS either alone or in combination with either pooled human milk oligosaccharides (HMOs), or 3′-sialyllactose (3′SL) or 2′-fucosyllactose (2′FL). After 6 hours, IL-6 (A) and IL-1β (B) mRNA levels were measured by RT-PCR and are plotted as mean±standard deviation (n=8) relative the respective mRNA levels in cells that were exposed to LPS alone (**p<0.01; ***p<0.001). HMOs are a group of more than 150 different structurally distinct oligosaccharides and their composition follows a basic structural blueprint (C), containing five monosaccharide building blocks: glucose (dark gray circle), galactose (light gray circle), N-acetylglucosamine (dark gray square), fucose (gray triangle) and sialic acid (gray diamond). 3′SL contains lactose with sialic acid at the terminal end; 2′FL contains lactose with fucose at the terminal end.
Oligosaccharides Reduce Pro-Inflammatory Cytokine mRNA Expression in Stimulated Macrophages. HMOs were first isolated and purified from pooled human donor milk (pHMO) by using polymixin B affinity chromatography to remove any lipopolysaccharide (LPS) contamination. RAW 264.7 cells, a murine macrophage cell line, were then incubated with LPS (10 ng/mL) and pHMO (500 ηg/mL) for 6 hours. RT-PCR was used to measure cytokine mRNA expression.
A multi-dimensional chromatography approach was used that separates pHMO first by charge and then by size. […] To exclude that the observed effect was due to impurities or contaminations from the isolation process, the results were confirmed with synthetized and commercially available 3′SL. […] Other oligosaccharides like 2′-fucosyllactose (2′FL), where the terminal monosaccharide is fucose instead of sialic acid (see FIG. 1C), had no effect, emphasizing that the anti-inflammatory effect of 3′SL in macrophages is specific to the structure of 3′SL.

[5] = background statement; cited from earlier work
[6] = 20 mg in saline, oral gavage thrice daily from LPS administration, vs saline
[7] = hind paws, day 14, scored 0 to 4, 20 mg oral gavage thrice daily
[8] = RAW 264.7 cells, LPS 10 ng/mL, 6 hours, compared to LPS alone

Row | SMILES | pro-inflammatory cytokine expression [1] | pro-inflammatory cytokine expression [2] | Baseline-corrected ankle thickness (paw swelling) [3, 6] | clinical index score 28 [3, 6] | adverse effects ([3]; 14-day study period, 20 mg oral gavage thrice daily) | histology score for cartilage damage [3, 7] | histology score for erosion [3, 7] | histology score for inflammation [3, 7] | IC50 for reducing IL-6 and IL-1β mRNA expression (dose-range finding studies) ([4]; LPS-stimulated macrophages) | IL-1β mRNA level [4, 8] | IL-6 mRNA level [4, 8] | digestion in the stomach and absorption [5] | tolerability [5]
1 | CC(=O)N[C@H]1[C@H]([C@H](O)[C@H](O)CO)O[C@@](O[C@H]2[C@@H](O)[C@@H](CO)O[C@@H](O[C@H]3[C@H](O)[C@@H](O)C(O)O[C@@H]3CO)[C@@H]2O)(C(=O)O)C[C@@H]1O (stereo partly shown) [3′SL, 3′-sialyllactose] | reduced | reduced | significantly reduced | significantly reduced | No adverse effects | significantly lower | significantly lower | significantly lower | around 15 μg/mL | most effective | most effective |  | 
2 | CC(=O)N[C@H]1[C@H](O[C@H]2[C@@H](O)[C@@H](CO)O[C@@H](O[C@H]3[C@H](O)[C@@H](O)C(O)O[C@@H]3CO)[C@@H]2O)O[C@H](CO)[C@@H](O[C@@H]2O[C@H](CO)[C@H](O)[C@H](O)[C@H]2O)[C@@H]1O (mixture of isomers) [LNnT, lacto-N-(neo)tetraose] |  |  |  |  |  |  |  |  |  |  |  | remain undigested in the stomach and are absorbed intact in the lower gastrointestinal tract | well tolerated
